Earlier results on 61 compounds are cited in the CATMoS acute toxicity set (Mansouri et al. 2021).

Values joined by “and” are separate entries in the source; they are usually repeats but may differ in a detail not shown here. Equal values may be shown once.

A short description of the data set: rat acute oral toxicity. The note with it: in vivo.
With `O=[N+]([O-])c1ccc(Oc2c(F)cc(Cl)cc2Cl)cc1`, the LD50 is 2890 mg/kg. For the compound `CCC(=O)OC1(c2ccccc2)CCN(C)CC1CC` (stereo unspecified), the LD50 is 175 mg/kg. As to `CCCc1ccc(OC)cc1`, the median lethal dose (LD50) was 4400 mg/kg. For the compound `NC[C@@H]1O[C@H](O[C@H]2[C@@H](O)[C@H](O[C@@H]3[C@@H](O)[C@H](N)C[C@H](N)[C@H]3O[C@H]3O[C@H](CO)[C@@H](O)[C@H](O)[C@H]3N)O[C@@H]2CO)[C@H](N)[C@@H](O)[C@@H]1O`, the LD50 was 21600 mg/kg. On to `C=CCNP(=O)(OC=C(Cl)Cl)OCCCl` (stereo unspecified), for which the 50% lethal dose (LD50) was 25 mg/kg. `CCCC(C)C(c1ccc(O)cc1)C(C)C` (stereo unspecified): the LD50 was 1900 mg/kg. For `C=CCC1(C2C=CCC2)C(=O)N=C(O)NC1=O` (stereo unspecified), the LD50 was 205 mg/kg. Turning to `CNC(=O)ON=C1CSCCSC1`, the LD50 is 400 mg/kg. For the compound `COc1cc(O)c(C(=O)c2ccccc2)cc1S(=O)(=O)O`, the LD50 is 3530 mg/kg. Take `Cc1ccc(C(N)=O)cc1N`: the LD50 is 1730 mg/kg. `CC=CC=CC(=O)NO`: the LD50 is 2460 mg/kg.

As for `CN1C(C(=O)Nc2ccccn2)=C(O)c2ccccc2S1(=O)=O`, the median lethal dose (LD50) is 216 mg/kg. In the case of `CCOP(=O)(OCC)SCC(C)(SCC)SCC`, the 50% lethal dose (LD50) was 15 mg/kg. For the compound `COCCOC(=O)C=CC(=O)OCCOC`, the LD50 was 3340 mg/kg. On to `NC1CCc2ccccc2C1` (stereo unspecified), for which the LD50 is 100 mg/kg.

As for `S=C(S)NCCNC(=S)S`, the LD50 was 1850 mg/kg and 2850 mg/kg. On to `NC(=O)OC(CCl)Cc1ccccc1` (stereo unspecified), for which the median lethal dose (LD50) is 490 mg/kg. Take `Fc1ccc(Br)cc1`: the LD50 is 2700 mg/kg. `CCOc1ccc(N(N=O)C(C)=O)cc1`: the LD50 is 21 mg/kg. With `C[N+](C)(C)CCOP(=O)(O)OP(=O)(O)OC[C@H]1O[C@@H](n2ccc(N)nc2=O)[C@H](O)[C@@H]1O`, the 50% lethal dose (LD50) was 18500 mg/kg. Regarding `CCC(C)c1ccccc1OC(N)=O` (stereo unspecified), the median lethal dose (LD50) is 410 mg/kg. As to `CC(=O)Nc1ccc2c(c1)sc1ccccc12`, the LD50 was 1200 mg/kg. As to `CCOC(=O)C(C(C)=O)P(=O)(OCC)OCC` (stereo unspecified), the LD50 was 176 mg/kg.

`Clc1nc(C(Cl)(Cl)Cl)c(Cl)c(Cl)c1Cl`: the LD50 is 1840 mg/kg. For the compound `ClCc1cc(Cl)cc(Cl)c1`, the LD50 is 1080 mg/kg. In the case of `COc1ccccc1OC(=O)CNC(=O)Cc1ccc(C(=O)c2ccc(C)cc2)n1C`, the LD50 is 1450 mg/kg.

With `O=c1c(F)cn(C2CCCO2)c(=O)n1C1CCCO1` (stereo unspecified), the LD50 was 1730 mg/kg. `CC(c1ccc(Cl)cc1)c1ccc(Cl)cc1`: the LD50 is 1000 mg/kg. For `CCOCCOc1ccc(Cl)cc1Cl`, the 50% lethal dose (LD50) is 1410 mg/kg. On to `c1ccc(Nc2ccc3ccccc3c2)cc1`, for which the LD50 is 8730 mg/kg. As to `OCCCC(O)CO` (stereo unspecified), the LD50 was 7800 mg/kg. With `CC(=O)CCCOC(C)=O`, the 50% lethal dose (LD50) was 6080 mg/kg.

Consider `FC(Cl)(Cl)c1ccccc1`, for which the 50% lethal dose (LD50) is 450 mg/kg.

Take `CCCC(=NOCC)C1=C(O)CC(C2CCCSC2)CC1=O` (stereo unspecified): the LD50 is 3940 mg/kg. As for `COP(=O)(OC)ON1C(=O)c2cccc3cccc(c23)C1=O`, the median lethal dose (LD50) was 70 mg/kg. Consider `CC(C)c1noc2nc(C(C)(C)C)ncc12`, for which the LD50 is 15400 mg/kg. Regarding `CC(SCC(=O)O)c1ccc2c(c1)Cc1ccccc1-2` (stereo unspecified), the 50% lethal dose (LD50) was 1900 mg/kg.

`Cc1ccccc1N=NN(C)C`: the median lethal dose (LD50) is 350 mg/kg. For `O=Cc1ccc(O)cc1O`, the LD50 is 400 mg/kg.

With `O=S(=O)(SC(Cl)(Cl)Cl)C(Cl)Cl`, the LD50 was 3620 mg/kg. In the case of `CN(C)CC#N`, the median lethal dose (LD50) is 50 mg/kg. In the case of `CC(C)C(OCCO)C(C)C`, the LD50 is 1070 mg/kg.

As for `C1C[SiH2]C1`, the LD50 is 1540 mg/kg. Turning to `COP(=S)(OC)SC1CCC2C=CCC1S2` (stereo unspecified), the LD50 was 1000 mg/kg. In the case of `O=C=Nc1ccccc1C(F)(F)F`, the median lethal dose (LD50) was 7000 mg/kg.

In the case of `C=C(C)C(=O)OC(=O)COC(C)C`, the median lethal dose (LD50) is 9000 mg/kg. With `CC(C)(C)[C@@H](O)[C@@H](Cc1ccc(Cl)cc1)n1cncn1` (single isomer, unassigned), the 50% lethal dose (LD50) is 1300 mg/kg.

With `Cc1nc2ccccc2c(=O)n1-c1ccc(Br)cc1`, the LD50 was 185 mg/kg. For `CC(CCN(C)C)N(C)C` (stereo unspecified), the LD50 is 750 mg/kg. Turning to `Cc1cccc(C)c1NC1=NCCCS1`, the LD50 was 130 mg/kg. For the compound `C=C1CC(C)C2C3Cc4ccc(O)cc4C2(CCN3CC2CCC2)C1` (stereo unspecified), the LD50 was 750 mg/kg. As for `OC(Cn1cncn1)(Cn1cncn1)c1ccc(F)cc1F`, the 50% lethal dose (LD50) is 1270 mg/kg. As for `C=CN`, the LD50 is 1850 mg/kg. Regarding `Cn1cc[nH]c1=S`, the LD50 is 2250 mg/kg. As for `Nc1cccc(C(F)(F)F)c1`, the LD50 was 480 mg/kg. As for `O=C(O)CNCP(=O)(O)O`, the median lethal dose (LD50) is 4870 mg/kg and 10500 mg/kg. In the case of `CCCCC(CC)COC(CBr)c1ccc(Cl)c(Cl)c1` (stereo unspecified), the LD50 is 250 mg/kg. Regarding `CCCC(=O)O[C@]1(C(=O)COC(=O)CC)CC[C@H]2[C@@H]3CCC4=CC(=O)CC[C@]4(C)[C@H]3[C@@H](O)C[C@@]21C`, the 50% lethal dose (LD50) is 5120 mg/kg. Consider `CCOC(=O)C1=CN(C)C2CCCC(C)N2C1=O` (stereo unspecified), for which the 50% lethal dose (LD50) is 378 mg/kg. On to `C1CCC(N2CCOCC2)CC1`, for which the median lethal dose (LD50) was 178 mg/kg. Consider `CC(C)(C)OC(=O)N1CC(=O)C1`, for which the 50% lethal dose (LD50) was 2500 mg/kg.
